The subject of experiment [1] is LH and testosterone values and spermatozoon number and motility. To be noted: man, daily one or two 3 g doses, at least 30 days; cited from earlier work.
For experiment [2], the system named is luteinizing hormone (LH), growth hormone, prolactin (PRL) and testosterone in blood. The following applies: rat, orally administered; cited from earlier work.
Experiment [3] concerns spermatozoa in human seminal liquid. The experiment can be described thus: Number and quick progressive motility of spermatozoa in human seminal liquid after oral D-aspartic/L-aspartic acid. Type of experiment: in vivo. The following applies: men. An excerpt: (§1) Like ingestion procedure, the D-aspartic and L-aspartic acid mixture preferably was dispersed in a half filled glass containing water or fresh or stored fruit juice (orange, apple, pear, etc.), then stirred and ingested.
(§2) Before the start of the study and after 20 days of treatment in the morning from each subject blood has been collected and the concentration of LH (luteinizing hormone) and testosterone has been determined in serum obtained from said blood. Moreover, from every subject also the seminal liquid has been collected for which quick progressive motility together with total number spermatozoa/ml of sperm has been determined.
The seminal liquid has been collected by masturbation after 3-5 abstinence days. The number of the spermatozoa and progressive quick motility have been determined according to (World Health Organization) WHO guidelines using a Makler Chamber for the count (Sefi Medtstl Instrument, Haifa, Israel) and in the same place the progressive quick motility has been determined.

Experiment [4] deals with testosterone in human serum. Briefly: Testosterone in human serum after oral D-aspartic/L-aspartic acid. Type of experiment: in vivo. The following applies: men, L-aspartic acid alone.
Description: as §1, §2

The subject of experiment [5] is spermatozoa in rabbit seminal liquid. The experiment can be described thus: Effect of feed containing D-aspartic/L-aspartic acid on number and motility of spermatozoa in rabbit seminal liquid. The following applies: rabbits, about 1.14 g/day total in feed, 20 days. Format: in vivo. The source says:
The study has been carried out on two groups of rabbits. […] A same age second group of 10 rabbits representing a control group (or placebo) was fed eat for 20 days with same type food as above prepared, but without the addition of D-aspartic and L-aspartic acids mixture. The experiments have been carried out in a rabbit breeding farm (“Potenza Breeders' Association”, Potenza, Italy). Before the start and at the end of the experiment from each rabbit a sperm sample has been collected by stimulation with an artificial vagina (see paper: “G. Macchia et al., DL-aspartic acid administration improve semen quality in rabbit bucks, published on “Animal Reproduction Science, 118, 337-343, 2010) and the total number of spermatozoa/ml of ejaculate and motility thereof have been determined.
The number of the spermatozoa and progressive quick motility are determined according to (World Health Organization) WHO guidelines using a Makler Chamber for the count (Sefi Medtstl Instrument, Haifa, Israel) and in the same place the progressive quick motility has been determined.
Also this study has been carried out on two groups of same age and weight rabbits as used for previous study. […] Also in this case seminal liquid has been collected before and after the experiment and then examined for spermatozoon number and motility thereof.
Also this study carried out on rabbits has been carried out in the same way as previous ones. […] Also in this case total amount of D-Asp+L-Asp ingested daily by rabbits was about 1.140 g.

Experiment [6] relates to LH (luteinizing hormone) in human serum. The experiment can be described thus: LH in human serum after oral D-aspartic/L-aspartic acid. To be noted: men, L-aspartic acid alone. Format: in vivo.
Description: as §1, §2

Experiment [7] concerns spermatozoa in human seminal liquid. Briefly: Number and quality of spermatozoa in human seminal liquid after oral sodium D-aspartate or sodium D-/L-aspartate mixtures. Type of experiment: in vivo. The following applies: men 25-40 years, oral 3.12 g/day total, 30 days. An excerpt: Seminal liquid has been collected through masturbation after 3-5 abstinence days. The number of the spermatozoa and progressive quick motility thereof have been determined according to (World Health Organization) WHO guidelines using a Makler Chamber for the count (Sefi Medtstl Instrument, Haifa, Israel) and in the same place the progressive quick motility has been determined.
It is to be pointed out that this study has been carried out on selected subjects having a number of spermatozoa in seminal liquid from 15.000.000 to 20.000.000/ml, that is minimum threshold values within normal range. […] In this case therefore the action of D-aspartate stimulates their maturation to vital spermatozoa.

The subject of experiment [8] is spermatozoa in rabbit seminal liquid. The experiment can be described thus: Effect of sodium D-aspartate and sodium D-/L-aspartate mixtures on number and motility of spermatozoa in rabbit seminal liquid. Type of experiment: in vivo. The following applies: rabbits, 0.25 g/day total mixed with food, 20 days. The source says:
The study has been carried out on two groups of rabbits (10 rabbits for each group) in order to test the effect of sodium D-aspartate and of the sodium D-aspartate in combination with a determined amount of sodium L-aspartate on the quality of seminal liquid, i.e. on number of spermatozoa/ml and on the progressive quick motility thereof.
The experiment involved the ingestion by a group of 10 male adult rabbits, 6 month old, of an amount of sodium D-aspartate corresponding to 0.250 g daily ([…] of body weight) over 20 days. Practically, sodium D-aspartate was mixed with food in such amount that the food daily ingested by the rabbit contained 0.250 g of sodium D-aspartate. In the same way, in a second experiment carried out on another group of 10 same age male adult rabbits, a mixture consisting of 0.2 g of sodium D-aspartate and 0,05 g of sodium L-aspartate (80% D-Asp: 20% L-Asp) was administered. Before the start of the experiment and at the end of drug ingestion lasting 20 days, from every rabbit a sperm sample obtained by stimulation using an artificial vagina has been collected and the total number of spermatozoa/ml of ejaculate and motility thereof have been determined.
The number of the spermatozoa and progressive quick motility are determined according to (World Health Organization) WHO guidelines using a Makler Chamber for the count (Sefi Medtstl Instrument, Haifa, Israel) and in the same place the progressive quick motility has been determined. The rabbit semen was 1:10 diluted in an iso-osmotic solution due to excessive concentration.
The study involved the administration of a mixture consisting of 0.125 g of sodium D-aspartate+0,125 g of sodium L-aspartate (D-Asp 50%: L-Asp 50%) to a group of 10 rabbits according to procedure of Example 2. […] In this case the production of the number of spermatozoa was increased by 25% and motility by 55% compared to controls showing that also in this case an improvement compared to D-aspartate alone was obtained but it was lower than mixture consisting of 80% D-aspartate and 20% L-aspartate.

For experiment [9], the system named is LH (luteinizing hormone) in human serum. To be noted: men 25-40 years, 30 days.
Description: (§3) The study involves the oral ingestion (after breakfast or main meal) by a group of 10 25-40 year old people of a daily dose consisting of 3.12 g of sodium D-aspartate (19,2 μmole of sodium D-aspartate; 0.27 μmol/kg of body weight for a 70 kg person) over 30 days. Another group of 10 25-40 year old people (after breakfast or main meal) ingested a daily dose of a mixture consisting of 2.49 g of sodium D-aspartate and 0.63 g of sodium L-aspartate (80% sodium D-aspartate and 20% sodium L-aspartate) for the same period.
(§4) LH and testosterone hormonal assays have been carried out using specific commercial kits for clinical chemical use.
Experiment [10] deals with testosterone in human serum. To be noted: men 25-40 years, oral 3.12 g/day total, 30 days.
Description: as §3, §4

Several values for one entry are separate records, joined by “and”; a condition that tells them apart may be missing. Identical values can stand only once. Like-named read-outs stand apart in the source and are kept apart here. Marks after values point to notes of the source that are not given here.

For the compound `N[C@H](CC(=O)O)C(=O)O` [D-aspartic acid], the “LH and testosterone values and spermatozoon number and motility” value in experiment [1] is on record as “induced an increase”. The “Blood LH, growth hormone, prolactin and testosterone” value in [2] is “temporary increase”.
`N[C@@H](CC(=O)O)C(=O)O` [L-aspartic acid]: the “Quick progressive motility of spermatozoa after treatment, individual subjects” value in experiment [3] (% progressive quick of 100 observed spermatozoa, one line per subject 1°-10°) was 25% and 19% and 35% (2×) and 18% and 40% and 45% and 22% and 27% and 39%. In addition, the “Average % increment of quick progressive motility” value in [3] (average ± SD of 10 subjects) is “+35.6% ± 9.05”. In experiment [3] (one line per subject 1°-10°), the “% increment of number of spermatozoa, individual subjects” value is 26% and 40% and 20% and 33% and 36% and 15% and 13% (2×) and 19% and 12%; the “% increment of quick progressive motility, individual subjects” value is 38% and 26% and 45% and 50% and 25% (2×) and 28% and 37% and 42% and 40%. Besides, the “Number of spermatozoa in seminal liquid after treatment, individual subjects” value in experiment [3] (one line per subject 1°-10° (20 days for the 80/20 mixture)) is 8 × 10^6 and 35 × 10^6 and 6 × 10^6 and 20 × 10^6 and 41 × 10^6 and 3 × 10^6 and 34 × 10^6 and 51 × 10^6 and 25 × 10^6 and 18 × 10^6. The “Testosterone haematic hormone before and after therapy” value in [4] is on record as “unaltered”. In addition, in experiment [5], the “Immobile after treatment (on base 100)” value is 29%, the “Quick motility after treatment (on base 100)” value is on record as 41% and the “Slow motility after treatment (on base 100)” value came out at 30%. Moreover, the “LH haematic hormone before and after therapy” value in experiment [6] is recorded as “unaltered”.
With `N[C@H](CC(=O)[O-])C(=O)[O-].[Na+].[Na+]` [100% D-Aspartate, sodium D-aspartate], in experiment [7], the “% increase of quick progressive spermatozoa vs before the treatment” value was “+28%”, the “% increase of total spermatozoa vs before the treatment” value is “+27%”, the “Immobile spermatozoa after ingestion (on base 100)” value is on record as 30%* and the “Quick progressive spermatozoa after ingestion (on base 100)” value turned out to be 45%*. Further, the “Slow spermatozoa after ingestion (on base 100)” value in experiment [7] was determined as 25%*. Further, in experiment [7] (listed as sodium D-aspartate), the “% increase of quick progressive spermatozoa vs before the treatment” value came out at 28% and the “% increase of total spermatozoa vs before the treatment” value is 27%. In experiment [8], the “% increment of number of spermatozoa vs before the treatment” value was found to be 19.3%, the “% increment of quick progressive spermatozoa vs before the treatment” value worked out at 37%, the “Immobile spermatozoa after ingestion (on 100 base)” value worked out at 18%* and the “Quick progressive spermatozoa after ingestion (on 100 base)” value worked out at 55%*. Besides, the “Slow spermatozoa after ingestion (on 100 base)” value in experiment [8] was found to be 27%*. In experiment [8] (listed as D-aspartate), the “% increment of quick progressive spermatozoa vs before the treatment” value worked out at 37% and the “Quick progressive spermatozoa after ingestion (on 100 base)” value is on record as 55%. In addition, in [8] (listed as sodium D-aspartate), the “% increment of number of spermatozoa vs before the treatment” value is given as 19,3%, the “% increment of quick progressive spermatozoa vs before the treatment” value is listed as 37% and the “Quick progressive spermatozoa after ingestion (on 100 base)” value came to 55%. Further, in experiment [9] (oral 3.12 g/day total), the “LH % increment vs before the treatment” value is reported as “+25.6%”. Moreover, in [9] (oral 3.12 g/day total, average of 10), the LH after ingestion is on record as 5.4 mIU/ml serum. Moreover, in experiment [9] (oral 3.12 g/day total, listed as sodium D-aspartate), the “LH % increment vs before the treatment” value is recorded as 25,6%. The “LH haematic value after ingestion” value in [9] (oral 3.12 g/day) turned out to be 5.4 mUI/ml. The “Testosterone % increment vs before the treatment” value in experiment [10] is “+31.2%”. In addition, the Testosterone after ingestion in experiment [10] (average of 10) stood at 6.3 ng/ml serum. For the same compound, the “Testosterone % increment vs before the treatment” value in experiment [10] (listed as sodium D-aspartate) is on record as 31.2%.

(Values after patent publication US20120095100A1, “USE OF A COMBINATION OF D-ASPARTIC AND L-ASPARTIC ACIDS OR SALTS THEREOF FOR THE TREATMENT OF MALE INFERTILITY” (MERCK SERONO S.P.A., priority 2009, published 2012).)
